The values below come from the supplement of paper PMC11061612.

Assay [1] concerns PC-14 (Lung Adenocarcinoma). Nature of the assay: combination Emax (second highest fraction inhibited in the dose matrix, 72 h); higher = more inhibition; extreme values may be limits of the assay. The gist of the method: (§1)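 Cell lines in DMEM/F12 or RPMI with 10% FBS were plated in 1536-well plates, held 24 hours at 37°C, 5% CO2, then given two-drug dose matrices for 72 hours (DMSO typically 0.2%). Viability was read by CellTiter-Glo 2.0 luminescence and scaled as inhibition from 0 (vehicle wells) to 1 (blank wells). Combination Emax is the second-highest inhibition in the matrix; Bliss excess is observed combination effect minus expected EA + EB − EA·EB, EA and EB being single-agent effects.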

In assay [2] the test system is SJRH30 (Rhabdomyosarcoma). Described as above. The method, boiled down: as §1
Assay [3] deals with HuO-3N1 (Osteosarcoma). The assay is described as above. The method, boiled down: as §1
Assay [4] deals with RT4 (Bladder Carcinoma). The assay is described as above. The gist of the method:
as §1

The subject of assay [5] is AsPC-1 (Pancreatic Carcinoma). The description is as above. The gist of the method:
as §1

The test system of assay [6] is RMG-I (Ovarian Carcinoma). The assay is described as above. The method, boiled down:
as §1

Assay [7] deals with LAMA-84 (Chronic Myelogenous Leukemia). The assay is described as above. The gist of the method: as §1
For assay [8], the system named is SW684 (Other Solid Carcinomas). Described as above. The method, boiled down:
as §1

Assay [9] deals with RPMI-8866 (Chronic Myelogenous Leukemia). Described as above. The method, boiled down: as §1
Assay [10] relates to PANC-02-03 (Pancreatic Carcinoma). The description is as above. The method, boiled down:
as §1

Assay [11] concerns OVTOKO (Ovarian Carcinoma). Described as above. The method, boiled down: as §1
Assay [12] has as its system KYSE-70 (Esophageal Squamous Cell Carcinoma). Described as above. The gist of the method: as §1
Assay [13] concerns RL95-2 (Endometrial Carcinoma). The assay is described as above. The gist of the method: as §1
In assay [14] the test system is NCI-H1155 (Non-Small Cell Lung Carcinoma). The assay is described as above. The gist of the method: as §1
Assay [15] deals with Becker (Low Grade Glioma). Described as above. The gist of the method: as §1
Assay [16] relates to CML-T1 (Chronic Myelogenous Leukemia). The description is as above. The gist of the method:
as §1

For assay [17], the system named is OV-90 (Ovarian Carcinoma). The assay is described as above. The gist of the method: as §1
Assay [18] deals with OCI-AML5 (Acute Myeloid Leukemia). Nature of the assay: Bliss excess, mean over the matrix (fraction); higher = more synergy. The method, boiled down:
as §1

For assay [19], the system named is EB-3 (Burkitt's Lymphoma). The description is as above. The method, boiled down:
as §1

With `NC1(C(=O)N[C@@H](CCO)c2ccc(Cl)cc2)CCN(c2ncnc3[nH]ccc23)CC1` [Capivasertib] + COc1nnc2ccc(N3CCC(c4ccc(OCCN5CCN(C)C(=O)[C@H]5C)cc4)CC3)nn12 [AZD5153] (first compound max 10 µM, 7x7, partner max 1 µM), the “combination Emax” value is 0.638 in assay [1]; 0.876 in [2]; 0.481 in assay [3]; 0.457 in assay [4]; 0.268 in assay [5]; 0.456 in assay [6]. Moreover, the “combination Emax” value is 0.907 in assay [7]; 0.579 in assay [8]; 0.839 in assay [9]; 0.602 in [10]; 0.604 in assay [11]; 0.358 in assay [12]. Besides, the “combination Emax” value came to 0.9 in assay [13]; 0.822 in [14]; 0.593 in assay [15]; 0.703 in assay [16]; 0.596 in [17]. Besides, the results for the Bliss excess in assay [18] and in assay [19] were 0.0552 and -0.0529, respectively.
For `C[C@@H](c1ccc2nccn2c1)n1nnc2ncc(-c3cnn(C)c3)nc21` [Savolitinib] + Cc1c2c(nn1C)CSCc1cc(n(C)n1)CSc1cc(c3ccccc3c1)OCCCc1c(C(=O)O)n(C)c3c-2c(Cl)ccc13 [AZD5991] (first compound max 1 µM, 7x7, partner max 1 µM), the “combination Emax” value in [1] was found to be 0.148; in assay [2], 0.464; in assay [3] it was 0.35; in assay [4], 0.25; in assay [5], 0.184; in [6], 0.216. In addition, the “combination Emax” value in assay [7] was determined as 0.234; in assay [8] it was 0.161; in assay [9] it was 0.108; in assay [10] it was 0.13; in assay [11] it was 0.199; in assay [12], 0.107. For the same compound, the “combination Emax” value in assay [13] worked out at 0.577; in [14], 0.114; in assay [15] it was 0.366; in assay [16], 0.228; in [17], 0.185. Moreover, the Bliss excess in assay [18] was -0.0178; in assay [19], -0.076.
Regarding `COc1nnc2ccc(N3CCC(c4ccc(OCCN5CCN(C)C(=O)[C@H]5C)cc4)CC3)nn12` [AZD5153] + Cc1c2c(nn1C)CSCc1cc(n(C)n1)CSc1cc(c3ccccc3c1)OCCCc1c(C(=O)O)n(C)c3c-2c(Cl)ccc13 [AZD5991] (first compound max 1 µM, 7x7, partner max 1 µM), the “combination Emax” value in assay [1] stood at 0.441; in assay [2], 0.97; in assay [3] it was 0.628; in assay [4] it was 0.911; in assay [5] it was 0.258; in [6], 0.58. Also, the “combination Emax” value in assay [7] is 0.928; in assay [8] it was 0.46; in assay [9] it was 0.857; in assay [10], 0.595; in assay [11], 0.531; in [12], 0.355. Further, the “combination Emax” value in [13] is 0.928; in [14], 0.646; in assay [15], 0.484; in assay [16], 0.523; in [17], 0.365. The results for the Bliss excess in assay [18] and in [19] were 0.134 and -0.0048, respectively.
For `Cn1cnc2c(F)c(Nc3ccc(Br)cc3Cl)c(C(=O)NOCCO)cc21` [Selumetinib] + CCN(CCO)CCCOc1ccc2c(Nc3cc(CC(=O)Nc4cccc(F)c4)[nH]n3)ncnc2c1 [AZD2811] (first compound max 10 µM, 7x7, partner max 1 µM), the “combination Emax” value in assay [1] is 0.587; in assay [2] it was 0.253; in [3] it was 0.181; in [4], 0.516; in assay [5], 0.443; in assay [6], 0.364. The “combination Emax” value came to 0.958 in assay [7]; 0.277 in [8]; 0.34 in assay [9]; 0.475 in assay [10]; 0.227 in assay [11]; 0.21 in assay [12]. For the same compound, the “combination Emax” value in assay [13] was 0.87; in [14] it was 0.674; in [15] it was 0.296; in assay [16], 0.765; in [17], 0.606. Also, the Bliss excess in assay [18] was -0.0225; in assay [19], -0.0415.
With `COc1nnc2ccc(N3CCC(c4ccc(OCCN5CCN(C)C(=O)[C@H]5C)cc4)CC3)nn12` [AZD5153] + CC1(C)CCC(CN2CCN(c3ccc(C(=O)NS(=O)(=O)c4ccc(NCC5CCOCC5)c([N+](=O)[O-])c4)c(Oc4cnc5[nH]ccc5c4)c3)CC2)=C(c2ccc(Cl)cc2)C1 [Venetoclax] (first compound max 1 µM, 7x7, partner max 1 µM), the “combination Emax” value in assay [1] is 0.419; in assay [2], 0.383; in [3], 0.337; in assay [4], 0.483; in assay [5], 0.176; in assay [6] it was 0.599. In addition, the “combination Emax” value in [7] worked out at 0.82; in [8], 0.531; in assay [9], 0.814; in assay [10] it was 0.582; in assay [11] it was 0.507; in [12], 0.409. Further, the “combination Emax” value in assay [13] turned out to be 0.426; in [14], 0.71; in assay [15], 0.334; in assay [16] it was 0.443; in assay [17], 0.387. Further, the Bliss excess in assay [18] was 0.0114; in [19] it was 0.0042.
Take `CC(=O)c1c(C)c2cnc(Nc3ccc(N4CCNCC4)cn3)nc2n(C2CCCC2)c1=O` [Palbociclib] + Cn1cnc2c(F)c(Nc3ccc(Br)cc3Cl)c(C(=O)NOCCO)cc21 [Selumetinib] (first compound max 10 µM, 7x7, partner max 10 µM): the “combination Emax” value was determined as 0.434 in assay [1]; 0.143 in assay [2]; 0.154 in assay [3]; 0.45 in [4]; 0.386 in assay [5]; 0.353 in assay [6]. The “combination Emax” value in assay [7] stood at 0.945; in assay [8] it was 0.292; in [9], 0.806; in assay [10], 0.475; in [11], 0.259; in [12], 0.182. Further, the “combination Emax” value worked out at 0.561 in assay [13]; 0.21 in assay [14]; 0.368 in [15]; 0.926 in [16]; 0.636 in [17]. The Bliss excess in assay [18] was 0.0868; in [19], -0.0727.
As for `Cn1cnc2c(F)c(Nc3ccc(Br)cc3Cl)c(C(=O)NOCCO)cc21` [Selumetinib] + C[C@@H]1COCCN1C2=NC(=NC(=C2)C3(CC3)[S@](=N)(=O)C)C4=C5C=CNC5=NC=C4 [AZD6738] (first compound max 10 µM, 7x7, partner max 10 µM), the “combination Emax” value in assay [1] was 0.829; in [2], 0.821; in assay [3], 0.22; in [4], 0.549; in assay [5], 0.435; in assay [6] it was 0.354. In addition, the “combination Emax” value in [7] came out at 0.992; in assay [8], 0.265; in [9] it was 0.943; in assay [10] it was 0.566; in assay [11], 0.404; in [12], 0.243. For the same compound, the “combination Emax” value in assay [13] was 0.772; in [14] it was 0.758; in [15], 0.427; in [16] it was 0.977; in assay [17] it was 0.688. The Bliss excess in [18] was 0.0024; in assay [19], -0.069.
